Results reported in article PMC6070797 (Marine Drugs, 2018).

Legend:
IMPDH2 = molecular target: T1, IMPDH2 (Homo sapiens, UniProt P12268); assay: IMPDH2 enzyme inhibition assay (recombinant protein, absorbance at 340 nm); format: biochemical; settings: recombinant IMPDH2, IMP and NAD+ substrates, pH 7.2, 37 °C; mean ± SD of three triplicate experiments; read-out: IC50 Inosine-5′-Monophosphate Dehydrogenase (IMPDH2)
T1 construct: made in house; host or cells: Escherichia coli BL21(DE3)
Experimental: The gene encoding IMPDH2 was cloned into the pET-28a vector (Novagen). After the recombinant plasmids were verified by sequencing, the plasmid was transformed into Escherichia coli BL21(DE3) (Invitrogen), which was grown in LB medium at 37 °C to an OD600 (0.8–1.0) and induced by 0.4 mM isopropyl-D-thiogalactopyranoside (IPTG) and grown at 20 °C for 16 h. The cell pellet was harvested and re-suspended in 30 mL buffer (20 mM Tris pH 8.5, 200 mM NaCl, and 10 mM imidazole), followed by disruption on a French press. Cell debris was removed by centrifugation at 21,000 rpm for 30 min. […] The protein was further purified with size exclusion chromatography at 20 mM Tris pH 8.5 and 200 mM NaCl.
The IMPDH2 inhibitory effects of test compounds were measured using the recombinant protein above. The enzyme solution (20 µL, 10 µg/mL), test compounds (10 µL) and buffer (40 µL, 100 mM phosphate buffer, pH 7.2) were pipetted and mixed in a 96-well microtiter plate. The mixture was incubated for 10 min at 37 °C. After incubation, inosine 5′-monophosphate (IMP) substrate solution (30 µL, 2.5 mM) and NAD^+ (30 µL, 5 mM) were added. The reaction can be readily monitored by an increase in optical absorbance at 340 nm. […] The data were imported into Prism (version 5.0, GraphPad) and the IC50 values were calculated by using a standard dose response curve fitting.

[1] = test system: Mouse splenocyte proliferation (T lymphocytes); assay: Immunosuppressive activity: ConA-induced proliferation of mouse splenocytes (T lymphocytes), CCK8; format: cell-based, BALB/c mice; settings: BALB/c spleen cells, 5 μg/mL ConA, 24 h, mean ± SD of three triplicate experiments
Source text: To assess the biological activity of the MPA derivatives, we primarily evaluated their IMPDH2 inhibitory activity with the previously reported enzyme assay method. […] Subsequently, the MPA derivatives were further tested for the in vitro immunosuppressive activity against the proliferation of T lymphocytes. Unsurprisingly, the activity at the cellular level was markedly consistent with their IMPDH2 inhibitory activity.
BALB/c mice were sacrificed by cervical dislocation, and the spleens were removed aseptically. Mononuclear cell suspensions were prepared after cell debris, and clumps were removed. Erythrocytes were depleted with ammonium chloride buffer solution. Lymphocytes were washed and suspended in DMEM medium supplemented with 10% FBS, penicillin (100 U/mL), and streptomycin ([…]). The 5 × 10^5 (150 μL per well) spleen cells in 96-well microtiter plates were cultured at 37 °C in a humidified and 5% CO2-containing incubator for 24 h in the presence or absence of the serious concentrations (ranging from 0.1 to 100 µM) of compounds. The cultures were stimulated with 5 μg/mL of concanavalin A (ConA) to induce T cells proliferative response. After treatment for 24 h, the cell quantity was measured using a CCK8 assay kit according to the manufacturer’s instructions.

SMILES	IC50 (IMPDH2)	IC50 [1]
COc1c(C)c2c(c(O)c1C/C=C(\C)CCC(=O)O)C(=O)OC2O (stereo not drawn) [Compound 2, 3-hydroxy mycophenolic acid]	0.95 ± 0.09 µM	1.23 ± 0.07 µM
COc1c(C)c2c(c(O)c1CCC(C)C(=O)O)C(=O)OC2 (stereo not drawn) [Compound 5, 6-(3-carboxybutyl)-7-hydroxy-5-methoxy-4-methylphthalan-1-one]	24.7 ± 2.74 µM	> 40 µM
COc1c(C)c2c(c(O)c1C/C=C(\C)CCC(=O)O)C(=O)OC2OC (stereo not drawn) [Compound 3, 6-(5-carboxy-3-methylpent-2-enyl)-7-hydroxy-3,5-dimethoxy-4-methylphthalan-1-one]	0.84 ± 0.11 µM	2.76 ± 0.13 µM
COC(=O)CC/C(C)=C/Cc1c(O)c2c(c(C)c1OC)C(O)OC2=O (stereo not drawn) [Compound 4, 6-(5-methoxycarbonyl-3-methylpent-2-enyl)-3,7-dihydroxy-5-methoxy-4-methylphthalan-1-one]	3.27 ± 0.18 µM	9.12 ± 0.38 µM
COc1c(C)c2c(c(O)c1C/C=C(\C)CCC(=O)O)C(=O)OC2 [MPA (11), Mycophenolic acid, reference compound]		0.96 ± 0.05 µM

Second part, led by results:

IC50 (IMPDH2)	SMILES	IC50 [1]
17.5 ± 1.3 µM	COc1c(C)c2c(c(O)c1C/C=C(\C)CCC(=O)N[C@@H](C)C(=O)O)C(=O)OC2 [Compound 10, N-mycophenoyl-L-alanine]	> 40 µM
23.8 ± 3.54 µM	COc1c(C)c2c(c(O)c1C/C=C(\C)CCC(=O)N[C@@H](Cc1ccccc1)C(=O)O)C(=O)OC2 [Compound 9, N-mycophenoyl-L-phenyloalanine]	> 40 µM
0.92 ± 0.08 µM	COCc1c2c(c(O)c(C/C=C(\C)CCC(=O)O)c1OC)C(=O)OC2 [Compound 1, 8-O-methyl mycophenolic acid]	4.21 ± 0.2 µM
15.7 ± 1.65 µM	COc1c(C)c2c(c(O)c1C/C=C(\C)CCC(=O)N[C@H](C(=O)O)C(C)C)C(=O)OC2 [Compound 8, N-mycophenoyl-L-valine]	30.6 ± 2.19 µM
8.59 ± 0.43 µM	COc1c(C)c2c(c(O)c1C/C=C(\C)CCC(=O)OCC(O)CO)C(=O)OC2 (stereo not drawn) [Compound 6, 6-[5-(2,3-dihydroxy-1-carboxyglyceride)-3-methylpent-2-enyl]-7-hydroxy-5-methoxy-4-methylphthalan-1-one]	19.7 ± 0.89 µM
12.6 ± 1.86 µM	COc1c(C)c2c(c(O)c1C/C=C(\C)CCC(=O)NCCCC(=O)O)C(=O)OC2 [Compound 7, 6-[5-(1-carboxy-4-N-carboxylate)-3-methylpent-2-enyl]-7-hydroxy-5-methoxy-4-methylphthalan-1-one]	24.6 ± 1.34 µM
